Patent US11384078B2, “5,6-fused-bicyclic compounds and compositions for the treatment of parasitic diseases” (NOVARTIS AG, priority 2017, dated 2022)
Where two headings read alike, the source gives them in different places.

Experiments:
[1] = system: Leishmania donovani axenic amastigote; experiment: In vitro assay for growth inhibition of Leishmania donovani axenic amastigote (Cell TiterGlo luminescence); assay type: cell-based; conditions: read-out: L. donovani amastigotes EC50
Protocol: Abbreviations as used herein below have the corresponding meaning: • CPRG Chlorophenol Red-P-D-galactopyranoside • ATP adenosine triphosphate • BSA bovine serum albumin • DMSO dimethyl sulfoxide • FBS fetal bovine serum • PBS phosphate buffered saline • RPMI 1640 Rosweli Park Memorial Institute (RPMI) 1640 medium In Vitro Assay for Growth Inhibition of Leishmania donovani Axenic Amastiqote
Leishmania donovani axenic amastigote parasites are grown at 37° C., 5% CO2 in media made of RPMI 1640, 4 mM L-glutamine, 20% heat inactivated FBS, 100 units/ml of penicillin and 100 μg/ml of streptomycin, 23 μM folic acid, 100 μM adenosine, 22 mM D-glucose, 25 mM MES. The pH of media is adjusted to 5.5 at 37° C. using HCl. 20 μL of media is first dispensed into 384 well plates and 100 nL of the compounds of invention in DMSO are added to the plate wells. At the same time control compounds and DMSO are added to plates to serve as the positive and negative controls, respectively. 40 μL of parasite culture (9600 parasites) are then added to the plate wells. The plates are then placed into incubators. After two days incubation, 20 μL of Cell TiterGlo® (Promega) is added to the plate wells. The luminescence signal of each well is measured using the Envision reader (Perkin Elmer).

[2] = system: Trypanosoma cruzi amastigotes cultured in 3T3 fibroblast cells; experiment: Assay for growth inhibition of kinetoplastid parasite Trypanosoma cruzi (beta-galactosidase Tulahuen strain, CPRG readout); assay type: cell-based; conditions: read-out: Buckner infectious T. cruzi EC50
Description: Assay for Growth Inhibition of Kinetoplastid Parasite Trypanosoma cruzi
Compounds of the invention can be assayed for inhibitor activity against Trypanosoma cruzi amastigotes cultured in 3T3 fibroblast cells. The assay is done using the mammalian stage (amastigotes) of T. cruzi that replicates in the intracellular space of host cells. The host cells are initially infected with the culture-derived trypomastigotes that rapidly invade and then divide as amastigotes. The protocol uses the Tulahuen strain of T. cruzi that has been engineered to express the E. coli beta-galactosidase gene (Lac-Z) (Antimicr. Agents Chemoth. 40:2592, 1996). This allows for a colorimetric readout by using the substrate CPRG and an absorbance plate reader.
3T3 fibroblast cells are re-suspended in RPMI-1640 medium without phenol red medium supplemented with 10% FBS (heat inactivated), 100 μg/ml penicillin, and 100 μg/ml streptomycin. Forty μL of suspension (1,000 cells) is dispensed into 384-well plates and incubated overnight at 37° C. temperature and in atmosphere containing 5% CO2. The following day, 100 nL of compounds of the invention in DMSO are added to plate wells containing 3T3 cells. At the same time control compounds (benznidazole and nifurtimox) and DMSO are added to plates to serve as the positive and negative controls, respectively. After that, 10 μL of media containing 10,000 T. cruzi trypomastigotes are added to each plate well and plates are placed back into incubators. After 6 day incubation, 10 μL of reagent solution (0.6 mM CPRG, 0.6% NP-40 in PBS) is added to plates and incubated at room temperature for 2 hours. Absorbance is then measured on SpectraMax GEMINI fluorimeter to determine relative number of T. cruzi cells present in each plate well.

[3] = Leishmania donovani, L. donovani axenic amastigotes in vitro
[4] = Trypanosoma cruzi, Fibroblast, T. cruzi amastigotes in 3T3 fibroblast cells
[5] = Leishmania donovani, Table 4: compound of Formula (I) compared with compounds having a different core
[6] = Trypanosoma cruzi, Fibroblast, Table 4: compound of Formula (I) compared with compounds having a different core

## O=C(Nc1ccc(F)c(-n2cc3cc(-c4ncccc4Cl)cnc3n2)c1)C1CC1 [Compound 333, N-{3-[5-(3-chloropyridin-2-yl)-2H-pyrazolo[3,4-b]pyridin-2-yl]-4-fluorophenyl}cyclopropanecarboxamide]
[1]; [3]
  EC50: 43 nM
[2]; [4]
  EC50: 16 nM

## Cc1ccc(C(=O)Nc2ccc(F)c(-n3cc4cc(C(C)C)cnc4n3)c2)o1 [Compound 109, N-{4-fluoro-3-[5-(propan-2-yl)-2H-pyrazolo[3,4-b]pyridin-2-yl]phenyl}-5-methylfuran-2-carboxamide]
[1]; [3]
  EC50: 74 nM
[2]; [4]
  EC50: 15 nM

## Cc1nc(C)c(C(=O)Nc2ccc(F)c(-n3cc4cc(CC(C)C)cnc4n3)c2)o1 [Compound 16, N-{4-fluoro-3-[5-(2-methylpropyl)-2H-pyrazolo[3,4-b]pyridin-2-yl]phenyl}-2,4-dimethyl-1,3-oxazole-5-carboxamide]
[1]; [3]
  EC50: 89 nM
[2]; [4]
  EC50: 12 nM

## CCC(C)c1cnc2nn(-c3cc(NC(=O)c4ccco4)ccc3F)cc2c1 (stereo not shown) [Compound 61, N-{3-[5-(butan-2-yl)-2H-pyrazolo[3,4-b]pyridin-2-yl]-4-fluorophenyl}furan-2-carboxamide]
[1]; [3]
  EC50: 240 nM
[2]; [4]
  EC50: 52 nM

## Cc1nc(C)c(C(=O)Nc2ccc(F)c(-c3nc4ncc(C(C)C)cn4n3)c2)o1 [reference compound]
[1]; [5]
  EC50: 210 nM
[2]; [6]
  EC50: 45 nM

## Cc1nc(C)c(C(=O)Nc2ccc(F)c(-c3cn4nc(C(C)(C)C)cnc4n3)c2)o1 [reference compound]
[1]; [5]
  EC50: 367 nM
[2]; [6]
  EC50: 57 nM

## O=C(Nc1ccc(F)c(-n2cc3cc(C4CCCCC4)cnc3n2)c1)c1ccco1 [Compound 57, N-(3-{5-cyclohexyl-2H-pyrazolo[3,4-b]pyridin-2-yl}-4-fluorophenyl)furan-2-carboxamide]
[1]; [3]
  EC50: 710 nM
[2]; [4]
  EC50: 360 nM

## Cc1nc(C)c(C(=O)Nc2ccc(F)c(-c3nc4ncc(C(C)(C)C)cn4n3)c2)o1 [reference compound]
[1]; [5]
  EC50: 80 nM
[2]; [6]
  EC50: 22 nM

## Cc1nc(C)c(C(=O)Nc2ccc(F)c(-n3cc4cc(C(C)C)cnc4n3)c2)o1 [drawing 458]
[1]; [5]
  EC50: 18 nM
[2]; [6]
  EC50: 15 nM

## O=C(Nc1ccc(F)c(-n2cc3cc(C4CCCC4)cnc3n2)c1)N1CC(F)C1 [Compound 18, N-(3-{5-cyclopentyl-2H-pyrazolo[3,4-b]pyridin-2-yl}-4-fluorophenyl)-3-fluoroazetidine-1-carboxamide]
[1]; [3]
  EC50: 290 nM
[2]; [4]
  EC50: 160 nM

## Cc1nc(C)c(C(=O)Nc2ccc(F)c(-n3cc4cc(CC(C)(C)C)cnc4n3)c2)o1 [Compound 102, N-{3-[5-(2,2-dimethylpropyl)-2H-pyrazolo[3,4-b]pyridin-2-yl]-4-fluorophenyl}-2,4-dimethyl-1,3-oxazole-5-carboxamide]
[1]; [3]
  EC50: 110 nM
[2]; [4]
  EC50: 46 nM

## Cc1nc(C)c(C(=O)Nc2ccc(F)c(-c3cn4cc(C(C)C)cnc4n3)c2)o1 [reference compound]
[1]; [5]
  EC50: 180 nM
[2]; [6]
  EC50: 48 nM

## O=C(Nc1ccc(F)c(-n2cc3cc(C4CCCC4)cnc3n2)c1)N1CC(F)(F)C1 [Compound 30, N-(3-{5-cyclopentyl-2H-pyrazolo[3,4-b]pyridin-2-yl}-4-fluorophenyl)-3,3-difluoroazetidine-1-carboxamide]
[1]; [3]
  EC50: 590 nM

## Cc1nc(C)c(C(=O)Nc2ccc(F)c(-n3cc4cc(N5CC(C(F)(F)F)C5)cnc4n3)c2)o1 [Compound 279]
[1]; L. donovani axenic amastigotes in vitro
  EC50: 10 nM
[2]; T. cruzi amastigotes in 3T3 fibroblast cells
  EC50: 3 nM

## COc1ccc(C(=O)Nc2ccc(F)c(-n3cc4cc(C(C)C)cnc4n3)c2)o1 [Compound 110, N-{4-fluoro-3-[5-(propan-2-yl)-2H-pyrazolo[3,4-b]pyridin-2-yl]phenyl}-5-methoxyfuran-2-carboxamide]
[1]; [3]
  EC50: 640 nM
[2]; [4]
  EC50: 150 nM

## CC(C)c1cnc2nn(-c3cc(NC(=O)c4ccc(F)o4)ccc3F)cc2c1 [Compound 113, 5-fluoro-N-{4-fluoro-3-[5-(propan-2-yl)-2H-pyrazolo[3,4-b]pyridin-2-yl]phenyl}furan-2-carboxamide]
[1]; [3]
  EC50: 37 nM
[2]; [4]
  EC50: 5.22 nM

## O=C(Nc1ccc(F)c(-n2cc3cc(N4CCC(F)(F)C4)cnc3n2)c1)N1CC(F)C1 [Compound 262, N-{3-[5-(3,3-difluoropyrrolidin-1-yl)-2H-pyrazolo[3,4-b]pyridin-2-yl]-4-fluorophenyl}-3-fluoroazetidine-1-carboxamide]
[1]; [3]
  EC50: 33 nM
[2]; [4]
  EC50: 4 nM

## O=C(Nc1ccc(F)c(-n2cc3cc(C4CCCC4)cnc3n2)c1)N1CC[C@@H](F)C1 [Compound 43, (3R)-N-(3-{5-cyclopentyl-2H-pyrazolo[3,4-b]pyridin-2-yl}-4-fluorophenyl)-3-fluoropyrrolidine-1-carboxamide]
[1]; [3]
  EC50: 4.7 nM
[2]; [4]
  EC50: 5.2 nM

## Cc1nc(C)c(C(=O)Nc2ccc(F)c(-n3cc4cc(C5CC5)cnc4n3)c2)o1 [Compound 17, N-(3-{5-cyclopropyl-2H-pyrazolo[3,4-b]pyridin-2-yl}-4-fluorophenyl)-2,4-dimethyl-1,3-oxazole-5-carboxamide]
[1]; [3]
  EC50: 64 nM
[2]; [4]
  EC50: 16 nM

## CC(C)c1cnc2nn(-c3cc(NC(=O)CC(C)C(F)(F)F)ccc3F)cc2c1 (stereo not shown) [Compound 213, 4,4,4-trifluoro-N-{4-fluoro-3-[5-(propan-2-yl)-2H-pyrazolo[3,4-b]pyridin-2-yl]phenyl}-3-methylbutanamide]
[1]; [3]
  EC50: 1560 nM
[2]; [4]
  EC50: 363 nM

## O=C(Nc1ccc(F)c(-n2cc3cc(N4CCOCC4)cnc3n2)c1)c1ccco1 [Compound 122, N-{4-fluoro-3-[5-(morpholin-4-yl)-2H-pyrazolo[3,4-b]pyridin-2-yl]phenyl}furan-2-carboxamide]
[1]; [3]
  EC50: 15 nM
[2]; [4]
  EC50: 4.2 nM

## CC(C)Cc1cnc2nn(-c3cc(NC(=O)c4ccco4)ccc3F)cc2c1 [Compound 54, N-{4-fluoro-3-[5-(2-methylpropyl)-2H-pyrazolo[3,4-b]pyridin-2-yl]phenyl}furan-2-carboxamide]
[1]; [3]
  EC50: 28 nM
[2]; [4]
  EC50: 4.1 nM

## CC(C)Cc1cnc2nn(-c3cc(NC(=O)N4CC[C@@H](F)C4)ccc3F)cc2c1 [Compound 41, (3R)-3-fluoro-N-{4-fluoro-3-[5-(2-methylpropyl)-2H-pyrazolo[3,4-b]pyridin-2-yl]phenyl}pyrrolidine-1-carboxamide]
[1]; [3]
  EC50: 20 nM

## CC(C)c1cnc2nn(-c3cc(NC(=O)CC(C)(C)C)ccc3F)cc2c1 [Compound 217, N-{4-fluoro-3-[5-(propan-2-yl)-2H-pyrazolo[3,4-b]pyridin-2-yl]phenyl}-3,3-dimethylbutanamide]
[1]; [3]
  EC50: 14500 nM
[2]; [4]
  EC50: 4350 nM

## O=C(Nc1ccc(F)c(-n2cc3cc(N4CC5(C4)CC5(F)F)cnc3n2)c1)N1CC(F)C1 [Compound 261, N-[3-(5-{1,1-difluoro-5-azaspiro[2.3]hexan-5-yl}-2H-pyrazolo[3,4-b]pyridin-2-yl)-4-fluorophenyl}-3-fluoroazetidine-1-carboxamide]
[1]; [3]
  EC50: 4 nM
[2]; [4]
  EC50: 2 nM

## CC(C)c1cnc2nn(-c3cc(NC(=O)N4CC(F)(F)C4)ccc3F)cc2c1 [Compound 124, 3,3-difluoro-N-{4-fluoro-3-[5-(propan-2-yl)-2H-pyrazolo[3,4-b]pyridin-2-yl]phenyl}azetidine-1-carboxamide]
[1]; [3]
  EC50: 18 nM
[2]; [4]
  EC50: 16 nM

## CC(C)c1cnc2nn(-c3cc(NC(=O)C4CCC4)ccc3F)cc2c1 [Compound 210, N-{4-fluoro-3-[5-(propan-2-yl)-2H-pyrazolo[3,4-b]pyridin-2-yl]phenyl}cyclobutanecarboxamide]
[1]; [3]
  EC50: 494 nM
[2]; [4]
  EC50: 79 nM
